The source of these data is PubChem BioAssay AID248 (DTP/NCI, 2004).

This experiment relates to L1210 leukemia ip in BDF1 mice, survival T/C. The experiment can be described thus: NCI In Vivo Anticancer Drug Screen. Data for tumor model L1210 Leukemia (intraperitoneal) in B6D2F1 (BDF1) mice. To be noted: endpoint: mean survival time, higher = longer survival. The essentials:
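Mice bearing the transplanted tumor received compound or vehicle. Survival of the treated group was divided by that of the vehicle-treated control group to give the ratio.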

The mark [1] stands for this setting: dose: 100.0 mg/kg/injection, schedule: Q04DX003 (ip), vehicle: saline.
Where [2] appears, read: dose: 200.0 mg/kg/injection, schedule: Q04DX003 (ip), vehicle: saline.
The mark [3] stands for this setting: dose: 100.0 mg/kg/injection, schedule: Q04DX003 (ip), vehicle: Klucel (hydroxypropylcellulose) (HPC).
Where [4] appears, read: dose: 200.0 mg/kg/injection, schedule: Q04DX003 (ip), vehicle: Klucel (hydroxypropylcellulose) (HPC).
The mark [5] stands for this setting: dose: 400.0 mg/kg/injection, schedule: Q04DX003 (ip), vehicle: Klucel (hydroxypropylcellulose) (HPC).
[6] abbreviates: dose: 100.0 mg/kg/injection, schedule: Q04DX002 (ip), vehicle: saline.
The mark [7] stands for this setting: dose: 100.0 mg/kg/injection, schedule: Q01DX009 (ip), vehicle: Klucel (hydroxypropylcellulose) (HPC).
Where [8] appears, read: dose: 200.0 mg/kg/injection, schedule: Q01DX009 (ip), vehicle: Klucel (hydroxypropylcellulose) (HPC).
Where [9] appears, read: dose: 400.0 mg/kg/injection, schedule: Q01DX009 (ip), vehicle: Klucel (hydroxypropylcellulose) (HPC).
Setting [10] is: dose: 100.0 mg/kg/injection, schedule: Q01DX001 (ip), vehicle: saline.
[11] abbreviates: dose: 200.0 mg/kg/injection, schedule: Q01DX001 (ip), vehicle: saline.

Inconclusive results and toxic doses are left out.

`COc1cc(C#N)ccc1O`: the T/C was 106 % of control (dose: 100.0 mg/kg/injection, schedule: Q01DX009 (ip), vehicle: gum acacia); 103 % of control (dose: 100.0 mg/kg/injection, schedule: Q04DX003 (ip), vehicle: gum acacia); 106 % of control (dose: 200.0 mg/kg/injection, schedule: Q01DX009 (ip), vehicle: gum acacia); 100 % of control (dose: 200.0 mg/kg/injection, schedule: Q04DX003 (ip), vehicle: gum acacia); 90 % of control (dose: 400.0 mg/kg/injection, schedule: Q01DX009 (ip), vehicle: gum acacia); 94 % of control (dose: 400.0 mg/kg/injection, schedule: Q04DX003 (ip), vehicle: gum acacia).
With `C=CCOCC(O)CN(C)CC1CCCO1` (stereo not drawn), the T/C is, setting by setting: (dose: 100.0 mg/kg/injection, schedule: Q01DX009 (ip), vehicle: saline) 95 % of control; under setting [1], 98 % of control; (dose: 200.0 mg/kg/injection, schedule: Q01DX009 (ip), vehicle: saline) 95 % of control; under setting [2], 86 % of control.
For the molecule `O=S(=O)(/N=C(Cl)/C(Cl)=N/S(=O)(=O)c1ccccc1)c1ccccc1`, the T/C by setting is: under setting [3], 95 % of control; under setting [4], 100 % of control; under setting [5], 95 % of control.
In the case of `CCOC(=O)NOP(=O)(N1CC1)N1CC1`, the T/C under setting [6] is 153 % of control.
For `CC(=O)OCCn1c([N+](=O)[O-])cnc1/C=[N+](/[O-])CCOC(C)=O`, the T/C under setting [6] was 103 % of control; the T/C (dose: 200.0 mg/kg/injection, schedule: Q04DX002 (ip), vehicle: saline) was 92 % of control; the T/C (dose: 400.0 mg/kg/injection, schedule: Q04DX002 (ip), vehicle: saline) was 100 % of control.
For the molecule `COc1c2c(cc3c1OCO3)C13CCN(C2)C1CC(OC)C1OC13` (stereo not drawn), the T/C runs as follows: (dose: 5.0 mg/kg/injection, schedule: Q01DX001 (ip), vehicle: other) 97 % of control; (dose: 10.0 mg/kg/injection, schedule: Q01DX001 (ip), vehicle: other) 109 % of control; (dose: 20.0 mg/kg/injection, schedule: Q01DX001 (ip), vehicle: other) 97 % of control; (dose: 40.0 mg/kg/injection, schedule: Q01DX001 (ip), vehicle: other) 90 % of control; (dose: 80.0 mg/kg/injection, schedule: Q01DX001 (ip), vehicle: other) 89 % of control.
`CCCCCCCCCCCCCCCCS(=O)(=O)N/N=C/c1ccc(Cl)cc1Cl`: the T/C (dose: 100.0 mg/kg/injection, schedule: Q01DX001 (ip), vehicle: carboxymethylcellulose (CMC)) is 98 % of control; the T/C (dose: 200.0 mg/kg/injection, schedule: Q01DX001 (ip), vehicle: carboxymethylcellulose (CMC)) is 101 % of control; the T/C (dose: 400.0 mg/kg/injection, schedule: Q01DX001 (ip), vehicle: carboxymethylcellulose (CMC)) was 107 % of control.
For `CCCOC1=C(Br)C(=O)c2ccccc2C1=O`, the T/C by setting is: (dose: 15.0 mg/kg/injection, schedule: Q01DX001 (ip), vehicle: carboxymethylcellulose (CMC)) 98 % of control; (dose: 30.0 mg/kg/injection, schedule: Q01DX001 (ip), vehicle: carboxymethylcellulose (CMC)) 97 % of control.
On to `c1ccc(-c2[nH]c3ccccc3c2-c2ccccc2)cc1`, for which the T/C by setting is: (dose: 50.0 mg/kg/injection, schedule: Q04DX003 (ip), vehicle: Klucel (hydroxypropylcellulose) (HPC)) 90 % of control; under setting [7], 106 % of control; under setting [3], 98 % of control; under setting [8], 103 % of control; under setting [4], 106 % of control; under setting [9], 96 % of control. Moreover, under setting [5], the T/C was 92 % of control.
`N=C1SCc2c1sc1ccccc21`: the T/C was 117 % of control under setting [3], 104 % of control under setting [4] and 103 % of control under setting [5].
On to `NC(=O)NCc1ccccc1`, for which the T/C runs as follows: under setting [10], 105 % of control; under setting [11], 97 % of control; (dose: 400.0 mg/kg/injection, schedule: Q01DX001 (ip), vehicle: saline) 103 % of control.
Consider `COc1ccc2c(c1)CN(S(=O)(=O)c1ccc(C)cc1)C=CC2=O`, for which the T/C under setting [7] is 96 % of control; the T/C under setting [3] is 90 % of control; the T/C under setting [8] was 104 % of control; the T/C under setting [4] is 96 % of control; the T/C under setting [9] was 96 % of control; the T/C under setting [5] is 98 % of control.
Regarding `O=C(CCl)c1ccc(O)c(O)c1`, the T/C was 94 % of control (dose: 6.25 mg/kg/injection, schedule: Q01DX009 (ip), vehicle: saline); 105 % of control (dose: 12.5 mg/kg/injection, schedule: Q01DX009 (ip), vehicle: saline); 105 % of control (dose: 33.0 mg/kg/injection, schedule: Q01DX001 (ip), vehicle: other); 108 % of control (dose: 50.0 mg/kg/injection, schedule: Q01DX001 (ip), vehicle: other); 109 % of control (dose: 75.0 mg/kg/injection, schedule: Q01DX001 (ip), vehicle: other); 108 % of control (dose: 112.0 mg/kg/injection, schedule: Q01DX001 (ip), vehicle: other).
For `CCCCCCCCCCCCCCC(=O)c1ccccc1`, the T/C was 100 % of control under setting [7]; 105 % of control under setting [3]; 102 % of control under setting [8]; 102 % of control under setting [4]; 95 % of control under setting [9]; 104 % of control under setting [5].
For `CN(C)c1ccc(C(=O)CCCN2CCC3(CC2)C(=O)NCN3c2ccccc2)cc1`, the T/C reads like this: (dose: 100.0 mg/kg/injection, schedule: Q01DX001 (ip), vehicle: Klucel (hydroxypropylcellulose) (HPC)) 100 % of control; (dose: 200.0 mg/kg/injection, schedule: Q01DX001 (ip), vehicle: Klucel (hydroxypropylcellulose) (HPC)) 94 % of control; (dose: 400.0 mg/kg/injection, schedule: Q01DX001 (ip), vehicle: Klucel (hydroxypropylcellulose) (HPC)) 100 % of control.
Take `COc1ccc(S(=O)(=O)NC(=O)NC(=O)CC=C(C)C)cc1`: the T/C (dose: 50.0 mg/kg/injection, schedule: Q04DX002 (ip), vehicle: Klucel (hydroxypropylcellulose) (HPC)) is 103 % of control; the T/C under setting [7] was 105 % of control; the T/C (dose: 100.0 mg/kg/injection, schedule: Q04DX002 (ip), vehicle: Klucel (hydroxypropylcellulose) (HPC)) is 96 % of control; the T/C under setting [3] was 110 % of control; the T/C under setting [8] is 95 % of control; the T/C (dose: 200.0 mg/kg/injection, schedule: Q04DX002 (ip), vehicle: Klucel (hydroxypropylcellulose) (HPC)) is 103 % of control. In addition, the T/C is 98 % of control under setting [4], 97 % of control under setting [9] and 104 % of control under setting [5].
For the molecule `O=S(=O)(OCC1C2CCC1CC2)c1ccccc1` (stereo not drawn), the T/C reads like this: (dose: 100.0 mg/kg/injection, schedule: Q01DX009 (ip), vehicle: other) 92 % of control; (dose: 100.0 mg/kg/injection, schedule: Q04DX003 (ip), vehicle: other) 104 % of control; (dose: 200.0 mg/kg/injection, schedule: Q01DX009 (ip), vehicle: other) 94 % of control; (dose: 200.0 mg/kg/injection, schedule: Q04DX003 (ip), vehicle: other) 94 % of control; (dose: 400.0 mg/kg/injection, schedule: Q01DX009 (ip), vehicle: other) 101 % of control; (dose: 400.0 mg/kg/injection, schedule: Q04DX003 (ip), vehicle: other) 89 % of control.
In the case of `N/C(=N\O)c1ccc(Cl)cc1`, the T/C by setting is: (dose: 100.0 mg/kg/injection, schedule: Q04DX003 (ip), vehicle: saline with Tween-80) 104 % of control; (dose: 200.0 mg/kg/injection, schedule: Q04DX003 (ip), vehicle: saline with Tween-80) 98 % of control.
Take `COC(=O)C(CSSCC(NC(=O)c1ccccc1)C(=O)OC)NC(=O)c1ccccc1` (stereo not drawn): the T/C (dose: 50.0 mg/kg/injection, schedule: Q01DX001 (ip), vehicle: saline) is 98 % of control; the T/C under setting [10] is 114 % of control; the T/C under setting [11] was 97 % of control.
With `OCCNCCc1ccccc1`, the T/C (dose: 75.0 mg/kg/injection, schedule: Q01DX009 (ip), vehicle: carboxymethylcellulose (CMC)) is 104 % of control and the T/C (dose: 150.0 mg/kg/injection, schedule: Q01DX009 (ip), vehicle: carboxymethylcellulose (CMC)) is 107 % of control.
Take `O=c1[nH]c(=O)ss1`: the T/C under setting [1] is 100 % of control and the T/C under setting [2] was 94 % of control.
Regarding `NC(=O)/C=C/c1ccc([N+](=O)[O-])cc1`, the T/C reads like this: under setting [3], 97 % of control; under setting [4], 100 % of control; under setting [5], 97 % of control.
